From patent US10316025B2, “Substituted piperazine compounds and methods of use and use thereof” (SUNSHINE LAKE PHARMA CO., LTD., priority 2015, dated 2019)

Tests used:
5-HT1A receptors = target: T1, 5-HT1A receptors (Homo sapiens, UniProt P08908); assay: h5-HT1A binding affinity test ([3H]8-OH-DPAT, HEK-293 cell homogenates); settings: 0.3 nM [3H]8-OH-DPAT, 22°C, 60 min, Ki from IC50 by ChengPrusoff equation
T1 construct: host or cells: human HEK-293 cell homogenates
T1 sequence (P08908 1-422): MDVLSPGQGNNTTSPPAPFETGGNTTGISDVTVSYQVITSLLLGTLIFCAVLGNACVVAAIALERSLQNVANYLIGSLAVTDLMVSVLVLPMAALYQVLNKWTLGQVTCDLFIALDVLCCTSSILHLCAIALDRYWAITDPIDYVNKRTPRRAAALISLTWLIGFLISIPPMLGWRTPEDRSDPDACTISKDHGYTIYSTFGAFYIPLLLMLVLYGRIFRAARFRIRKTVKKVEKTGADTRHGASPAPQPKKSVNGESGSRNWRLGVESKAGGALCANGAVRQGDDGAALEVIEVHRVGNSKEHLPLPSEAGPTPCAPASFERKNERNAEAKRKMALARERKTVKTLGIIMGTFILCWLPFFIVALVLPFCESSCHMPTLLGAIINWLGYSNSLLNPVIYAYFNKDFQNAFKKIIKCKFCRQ
Description: Human HEK-293 cell homogenates (36 μg of protein) were incubated at 22° C. for 60 minutes with 0.3 nM of [^3H]8-OH-DPAT (Perkin-Elmer) in the absence or presence of the test compound in a buffer solution containing 50 mM of Tris-HCl (pH 7.4), 10 mM of MgSO4, 0.5 mM of EDTA and 2 μg/mL aprotinine.
The non-specific binding value was determined by incubating the same mixture in the presence of 10 μM of 8-OH-DPAT, which was used as the standard reference compound. Competitive curve was obtained by testing data of 8-OH-DPAT in each experiment at several concentrations.
The incubated samples were filtered fastly using a 96-sample cell harvester (Unifilter, Packard) through fiberglass filter membranes (GF/B, Packard) pre-soaked with 0.3% PEI in vacuo, and washed several times with an ice cold 50 mM of Tris-HCl. The filter membranes were dried and the retained radioactivity was measured in a scintillation counter (Topcount, Packard) using a scintillation cocktail (Microscint 0, Packard). The experimental results were expressed as inhibition percentage of radioactive ligand specific binding relative to control groups.
The experiments of combining [^3H]8-OH-DPAT (0.3 nM) with 5-HT1A receptors of human HEK-293 cells were accomplished by using Scintillation Proximity Assay on membrane. The test compounds were required to be tested at least three times in the case of a concentration of more than 6 log, and the data were analyzed by the method of nonlinear regression using Hill equation curve to obtain an IC50 value, and then the IC50 value was calculated by ChengPrusoff equation to obtain a Ki value.

[1] = target: T2, human 5-HT transporters (SERT) (Homo sapiens, UniProt P31645); assay: Affinity to CHO cells-transfected human-derived 5-HT transporter ([3H]imipramine binding); settings: 2 nM [3H]imipramine, CHO cell membrane homogenate, 22°C, 60 min
T2 construct: expressed in transfected cells; host or cells: CHO cells (membrane homogenate)
T2 sequence (P31645 whole entry): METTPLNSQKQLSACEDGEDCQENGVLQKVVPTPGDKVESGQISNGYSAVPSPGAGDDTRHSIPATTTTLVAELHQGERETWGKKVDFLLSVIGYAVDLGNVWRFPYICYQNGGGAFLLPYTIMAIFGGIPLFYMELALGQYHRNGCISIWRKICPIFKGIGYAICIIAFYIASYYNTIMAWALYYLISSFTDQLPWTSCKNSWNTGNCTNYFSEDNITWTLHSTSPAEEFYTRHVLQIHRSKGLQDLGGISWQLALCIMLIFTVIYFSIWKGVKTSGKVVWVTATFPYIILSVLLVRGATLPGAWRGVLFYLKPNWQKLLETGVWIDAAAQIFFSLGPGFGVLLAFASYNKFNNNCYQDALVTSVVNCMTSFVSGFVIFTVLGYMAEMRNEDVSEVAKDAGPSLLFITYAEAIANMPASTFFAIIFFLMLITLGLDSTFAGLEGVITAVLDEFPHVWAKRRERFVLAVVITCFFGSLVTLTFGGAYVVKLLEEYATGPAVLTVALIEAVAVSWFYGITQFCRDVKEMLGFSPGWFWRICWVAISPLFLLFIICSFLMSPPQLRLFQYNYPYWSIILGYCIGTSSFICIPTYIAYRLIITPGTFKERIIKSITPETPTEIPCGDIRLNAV
Description: To a mixed system of cell membrane homogenate protein (12 μg), 2 nM of [^3H] imipramine and buffer solution (50 mM of Tris-HCl (pH 7.4), 120 mM of NaCl, 0.5 mM of KCl and 0.1% BSA) was added or not added the test compound at 22° C., and then the resulting mixture was incubated for 60 minutes.
To the mixed system mentioned above was added 10 μM of imipramine for measuring nonspecific binding values.
After incubation, the samples were filtered rapidly in vacuo with a 96-sample cell harvester (Unifilter, Packard) through glass-fiber filters (GF/B, Packard) pre-soaked with 0.3% PEI and rinsed several times with an ice-cold 50 mM of Tris-HCl and 150 mM of NaCl. The filters were dried and the retained radioactivity was measured by means of a scintillation counter (Topcount, Packard) using a scintillation cocktail (Microscint O, Packard). Each experimental result was expressed as a percentage inhibition of radioactive ligand specific binding relative to control groups.
The standard reference compound was imipramine, and ICso values were calculated by the competitive curve obtained from a series of concentrations of the experimental test. The experimental results of the affinity of the compounds disclosed herein to human 5-HT transporters (SERT) were listed in Table A.

[2] = Pharmacokinetic evaluation in rats after intravenous or gavage administration; format: in vivo, SD rats; settings: for AUC(0-inf) / AUC(0-t) / Cmax / Tmax / clearance / half-life / Vd: SD, rat, plasma; for Vd: read-out: Vss
Description: The pharmacokinetic evaluation of the compound disclosed herein in rats, dogs and monkeys was carried out in this invention, and animal information as described in Table 1.
The compounds disclosed herein were administered in form of a saline solution containing 5% DMSO, 5% Kolliphor HS 15, 2% (2% HCl) and 88% Saline, or a physiological saline solution containing 10% DMSO, 10% Kolliphor HS 15 and 80% physiological saline to an animal subject. The animals of the intravenous administration group were administered at a dose of 1 mg/kg, and 0.3 mL of vein blood samples were collected at the time points of 0, 0.083, 0.25, 0.5, 1.0, 2.0, 5.0, 7.0 and 24 h after drug administration, then each blood sample was processed to separate plasma by centrifugation at 3000 rpm or 4000 rpm for 10 minutes, and the plasma samples were collected and stored at −20° C. or −70° C. The animals of the gavage administration group were administered at a dose of 2.5 mg/kg, and 0.3 mL of vein blood samples were collected at the time points of 0, 0.083, 0.25, 0.5, 1.0, 2.0, 5.0, 7.0 and 24 h after drug administration, then each blood sample was processed to separate plasma by centrifugation at 3000 rpm or 4000 rpm for 10 minutes, and the plasma samples were collected and stored at −20° C. or −70° C.
The above plasma was analyzed by the LC/MS/MS system.
The LC/MS/MS system for the analysis comprises an Agilent 1200 Series Vacuum Degasser, binary syringe pumps, a well-plate autosampler, a column oven and an Agilent G6430A Triple Quadrupole Mass Spectrometer equiped with an electrospray ionization (ESI) source.
Analysis was performed on waters XBridge C18 (2.1×50 mm, […] column, and 5 μL of sample was injected). Conditions of the analysis comprise: a mobile phase consisting of mobile phase A (water, 2 mM ammonium formate and 0.1% formic acid) and mobile phase B (methanol, 2 mM ammonium formate and 0.1% formic acid). A flow rate of 0.4 mL/min.

| Compound | Ki (5-HT1A receptors) [nM] | IC50 [1] [nM] | AUC(0-inf) ([2]; iv, 1 mg/kg) [ng·h/mL] | AUC(0-t) ([2]; iv, 1 mg/kg) [ng·h/mL] | Cmax ([2]; iv, 1 mg/kg) [ng/mL] | Tmax ([2]; iv, 1 mg/kg) [h] | clearance ([2]; iv, 1 mg/kg) [mL/min/kg] | half-life ([2]; iv, 1 mg/kg) [h] | Vd ([2]; iv, 1 mg/kg) [L/kg] | AUC(0-t) ([2]; po, 2.5 mg/kg) [ng·h/mL] | Cmax ([2]; po, 2.5 mg/kg) [ng/mL] | Tmax ([2]; po, 2.5 mg/kg) [h] | F ([2]; po, 2.5 mg/kg) [%] | AUC(0-inf) ([2]; po, 2.5 mg/kg) [ng·h/mL] | half-life ([2]; po, 2.5 mg/kg) [h] |
| --- | --- | --- | --- | --- | --- | --- | --- | --- | --- | --- | --- | --- | --- | --- | --- |
| N#Cc1ccc2[nH]cc(CCCCN3CCN(c4ncc(-c5ccc(Cl)cc5)cn4)CC3)c2c1 [Example 11, 3-(4-(4-(5-(4-chlorophenyl)pyrimidin-2-yl)piperazin-1-yl)butyl)-1H-indole-5-carbonitrile] | 13 | 1.6 |  |  |  |  |  |  |  |  |  |  |  |  |  |
| COc1ccccc1-c1cnc(N2CCN(CCCCc3c[nH]c4ccc(C#N)cc34)CC2)nc1 [Example 9, 3-(4-(4-(5-(2-methoxyphenyl)pyrimidin-2-yl)piperazin-1-yl)butyl)-1H-indole-5-carbonitrile] | 2.7 | 1 |  |  |  |  |  |  |  |  |  |  |  |  |  |
| N#Cc1ccc2[nH]cc(CCCN3CCN(c4ncc(-c5ccc(Cl)cc5)cn4)CC3)c2c1 [Example 12, 3-(3-(4-(5-(4-chlorophenyl)pyrimidin-2-yl)piperazin-1-yl)propyl)-1H-indole-5-carbonitrile] | 5.5 | 0.32 | 2240 | 1870 | 444 | 0.083 | 7.5 | 9.52 | 5.46 | 2950 | 207 | 5.67 | 52.62 |  |  |
| N#Cc1ccc2[nH]cc(CCCCN3CCN(c4ncc(-c5ccc(F)cc5)cn4)CC3)c2c1 [Example 7, 3-(4-(4-(5-(4-fluorophenyl)pyrimidin-2-yl)piperazin-1-yl)butyl)-1H-indole-5-carbonitrile] | 3.7 | 0.88 | 1030 | 1010 | 299 | 0.139 | 16.7 | 4.64 | 5.03 | 1960 | 194 | 2.67 | 78.1 | 2010 | 4.37 |
| COc1cc(F)ccc1-c1cnc(N2CCN(CCCCc3c[nH]c4ccc(C#N)cc34)CC2)nc1 [Example 15, 3-(4-(4-(5-(4-fluoro-2-methoxyphenyl)pyrimidin-2-yl)piperazin-1-yl)butyl)-1H-indole-5-carbonitrile] | 11 | 0.96 |  |  |  |  |  |  |  |  |  |  |  |  |  |
| N#Cc1ccc2[nH]cc(CCCN3CCN(c4ncc(-c5ccc(F)cc5)cn4)CC3)c2c1 [Example 8, 3-(3-(4-(5-(4-fluorophenyl)pyrimidin-2-yl)piperazin-1-yl)propyl)-1H-indole-5-carbonitrile] | 1.9 | 1.3 | 1250 | 1180 | 195 | 0.139 | 13.4 | 5.85 | 6.01 | 2140 | 180 | 4 | 68.48 | 2070 | 4.85 |
| COc1cc(F)ccc1-c1cnc(N2CCN(CCCc3c[nH]c4ccc(C#N)cc34)CC2)nc1 [Example 16, 3-(3-(4-(5-(4-fluoro-2-methoxyphenyl)pyrimidin-2-yl)piperazin-1-yl)propyl)-1H-indole-5-carbonitrile] | 7.1 | 0.87 |  |  |  |  |  |  |  |  |  |  |  |  |  |
